Results: ChEMBL document CHEMBL1681694, “Solution-phase parallel synthesis and screening of anti-tumor activities from fenbufen and ethacrynic acid libraries” (Bioorg Med Chem Lett, 2011)

Legend:
Type in all cases: functional, cell-based
A549 = experiment: Cytotoxicity against human A549 cells after 2 days by MTT assay; settings: A549, 48 h
[1] = Cytotoxicity against mouse C26 cells after 2 days by MTT assay; settings: C26, 48 h
MCF7 = experiment: Cytotoxicity against human MCF7 cells after 2 days by MTT assay; settings: MCF7, 48 h
[2] = Cytotoxicity against mouse TRAMP-C1 cells after 2 days by MTT assay; settings: TRAMP-C1, 48 h

| SMILES | IC50 (A549) [µM] | IC50 [1] [µM] | IC50 (MCF7) [µM] | IC50 [2] [µM] |
| --- | --- | --- | --- | --- |
| Cc1ccc(C)c(OCCCC(C)(C)C(=O)NCCCCNC(=O)CCC(=O)c2ccc(-c3ccccc3)cc2)c1 | 9 | 10 | 2 | 40 |
| CCCCC(CC)C(=O)NCCCCNC(=O)CCC(=O)c1ccc(-c2ccccc2)cc1 (stereo not given) | 17 | 13 | 1 | 18 |
| C=C(CC)C(=O)c1ccc(OCC(=O)NCCCCNC(=O)CCC(=O)c2ccc(-c3ccccc3)cc2)c(Cl)c1Cl | 19 | 35 | 5 | 80 |
| C=C(CC)C(=O)c1ccc(OCC(=O)NCCCCN)c(Cl)c1Cl | 18 | – | 8 | – |
| NCCCCNC(=O)CCC(=O)c1ccc(-c2ccccc2)cc1 [FENBUFEN BUTANAMINE] | 100 | – | 87 | – |
| O=C(O)CCC(=O)c1ccc(-c2ccccc2)cc1 [FENBUFEN] | > 100 | > 100 | > 50 | > 100 |
